Tests used:
[1] = molecular target: T1, Glutathione S-transferase A2 (Homo sapiens, UniProt P09210); assay: Substrates for human cytosolic glutathione transferase GSTA2; format: ADME
T1 sequence (P09210 whole entry): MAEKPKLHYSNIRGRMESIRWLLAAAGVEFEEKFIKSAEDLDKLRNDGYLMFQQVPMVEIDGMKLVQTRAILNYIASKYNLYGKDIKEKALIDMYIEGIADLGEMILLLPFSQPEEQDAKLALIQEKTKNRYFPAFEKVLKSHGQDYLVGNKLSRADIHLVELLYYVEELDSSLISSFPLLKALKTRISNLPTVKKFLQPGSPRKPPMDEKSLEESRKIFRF

[2] = molecular target: T2, Glutathione S-transferase A1 (Homo sapiens, UniProt P08263); assay: Substrates for human cytosolic glutathione transferase GSTA1; format: ADME
T2 sequence (P08263 whole entry): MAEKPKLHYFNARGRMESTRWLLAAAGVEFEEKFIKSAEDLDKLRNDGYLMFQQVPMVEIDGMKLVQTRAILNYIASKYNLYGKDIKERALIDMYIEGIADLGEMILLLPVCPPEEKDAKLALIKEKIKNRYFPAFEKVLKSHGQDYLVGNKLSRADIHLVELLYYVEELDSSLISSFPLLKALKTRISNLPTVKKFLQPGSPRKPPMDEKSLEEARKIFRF

[3] = molecular target: Glutathione S-transferase A3 (Homo sapiens, UniProt Q16772); assay: Substrates for human cytosolic glutathione transferase GSTA3; format: ADME
[4] = molecular target: T3, Aryl hydrocarbon receptor (Homo sapiens, UniProt P35869); assay: Aryl hydrocarbon receptor antagonist (species not specified)
T3 sequence (P35869 whole entry): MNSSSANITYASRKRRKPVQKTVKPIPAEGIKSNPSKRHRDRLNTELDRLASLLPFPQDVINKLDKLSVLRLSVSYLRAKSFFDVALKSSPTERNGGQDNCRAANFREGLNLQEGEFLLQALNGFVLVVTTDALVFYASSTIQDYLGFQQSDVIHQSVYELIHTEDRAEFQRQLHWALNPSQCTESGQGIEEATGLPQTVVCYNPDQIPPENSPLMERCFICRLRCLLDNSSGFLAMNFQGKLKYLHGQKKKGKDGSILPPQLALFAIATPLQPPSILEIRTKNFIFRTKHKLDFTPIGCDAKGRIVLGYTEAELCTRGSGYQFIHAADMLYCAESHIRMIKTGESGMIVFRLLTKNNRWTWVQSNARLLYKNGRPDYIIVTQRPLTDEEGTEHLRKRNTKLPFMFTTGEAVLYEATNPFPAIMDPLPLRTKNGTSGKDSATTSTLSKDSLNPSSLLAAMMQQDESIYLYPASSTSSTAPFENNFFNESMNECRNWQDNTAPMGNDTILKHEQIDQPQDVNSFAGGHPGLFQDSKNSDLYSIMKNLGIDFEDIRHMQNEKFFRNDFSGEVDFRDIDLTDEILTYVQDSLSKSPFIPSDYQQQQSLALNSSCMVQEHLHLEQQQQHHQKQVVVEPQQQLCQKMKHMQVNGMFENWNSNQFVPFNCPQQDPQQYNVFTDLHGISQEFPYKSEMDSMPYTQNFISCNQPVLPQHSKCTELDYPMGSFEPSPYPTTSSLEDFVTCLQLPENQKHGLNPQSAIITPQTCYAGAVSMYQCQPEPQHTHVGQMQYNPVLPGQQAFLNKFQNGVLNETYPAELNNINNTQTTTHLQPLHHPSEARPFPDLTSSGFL

[5] = molecular target: T4, Nuclear receptor subfamily 1 group I member 3 (Mus musculus, UniProt O35627); assay: (§1) Constitutive androstane receptor indirect activator; format: ADME
T4 sequence (O35627 whole entry): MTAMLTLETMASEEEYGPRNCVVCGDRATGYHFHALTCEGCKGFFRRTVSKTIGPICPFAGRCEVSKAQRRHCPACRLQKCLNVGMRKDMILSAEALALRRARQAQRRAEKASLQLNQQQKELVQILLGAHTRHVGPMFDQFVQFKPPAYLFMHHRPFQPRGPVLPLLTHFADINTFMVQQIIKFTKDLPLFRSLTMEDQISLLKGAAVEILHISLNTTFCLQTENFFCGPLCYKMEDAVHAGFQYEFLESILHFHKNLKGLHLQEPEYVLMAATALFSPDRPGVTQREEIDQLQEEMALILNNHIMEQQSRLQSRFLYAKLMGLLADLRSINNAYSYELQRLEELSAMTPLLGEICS

[6] = molecular target: T5, Nuclear receptor subfamily 1 group I member 3 (Homo sapiens, UniProt Q14994); assay: as §1; format: ADME
T5 sequence (Q14994 whole entry): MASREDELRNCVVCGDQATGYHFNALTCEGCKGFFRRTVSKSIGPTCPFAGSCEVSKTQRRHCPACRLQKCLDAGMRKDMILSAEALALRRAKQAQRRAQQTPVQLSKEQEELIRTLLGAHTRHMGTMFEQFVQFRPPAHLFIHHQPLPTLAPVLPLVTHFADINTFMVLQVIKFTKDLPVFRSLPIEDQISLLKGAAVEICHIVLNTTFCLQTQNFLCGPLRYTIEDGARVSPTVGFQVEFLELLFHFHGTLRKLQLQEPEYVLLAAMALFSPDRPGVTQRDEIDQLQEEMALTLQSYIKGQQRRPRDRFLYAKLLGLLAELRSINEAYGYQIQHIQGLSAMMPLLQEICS

Cytochrome P450 2B6 = molecular target: T6, Cytochrome P450 2B6 (Homo sapiens, UniProt P20813); assay: Clinically relevant inducers of human liver microsomal P450 enzymes, isoform CYP2B6; format: ADME; conditions: microsomes
T6 sequence (P20813 whole entry): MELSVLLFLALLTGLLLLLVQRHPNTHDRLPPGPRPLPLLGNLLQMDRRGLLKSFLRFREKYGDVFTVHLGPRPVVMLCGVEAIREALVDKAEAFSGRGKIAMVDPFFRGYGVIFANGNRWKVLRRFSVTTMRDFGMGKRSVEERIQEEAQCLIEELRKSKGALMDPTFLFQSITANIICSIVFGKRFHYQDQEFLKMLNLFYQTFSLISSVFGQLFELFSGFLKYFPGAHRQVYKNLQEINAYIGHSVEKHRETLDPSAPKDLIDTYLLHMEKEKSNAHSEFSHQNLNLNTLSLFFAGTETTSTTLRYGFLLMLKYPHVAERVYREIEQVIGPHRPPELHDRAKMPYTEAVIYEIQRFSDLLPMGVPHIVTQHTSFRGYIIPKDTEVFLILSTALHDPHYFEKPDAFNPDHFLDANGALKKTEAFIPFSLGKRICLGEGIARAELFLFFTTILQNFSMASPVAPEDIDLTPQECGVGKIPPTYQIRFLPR

Cytochrome P450 2C9 = Cytochrome P450 2C9 (Homo sapiens, UniProt P11712); assay: Clinically relevant substrates of human liver microsomal P450 enzymes, isoform CYP2C9; format: ADME; conditions: microsomes
[7] = molecular target: T4, Nuclear receptor subfamily 1 group I member 3; assay: Constitutive androstane receptor agonist
[8] = molecular target: T5, Nuclear receptor subfamily 1 group I member 3; assay: Constitutive androstane receptor inverse agonist
[9] = molecular target: Glutathione S-transferase theta-2 (Homo sapiens, UniProt P0CG29); assay: Substrates for human cytosolic glutathione transferase GSTT2; format: ADME
[10] = molecular target: T7, Microsomal glutathione S-transferase 1 (Homo sapiens, UniProt P10620); assay: Substrates for human microsomal glutathione transferase MGST1; format: ADME
T7 sequence (P10620 whole entry): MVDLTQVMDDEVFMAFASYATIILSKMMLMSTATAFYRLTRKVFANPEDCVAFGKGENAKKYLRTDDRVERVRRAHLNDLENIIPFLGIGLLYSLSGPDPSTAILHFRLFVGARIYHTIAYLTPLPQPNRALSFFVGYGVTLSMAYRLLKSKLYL

[11] = molecular target: T8, Glutathione S-transferase kappa 1 (Homo sapiens, UniProt Q9Y2Q3); assay: Substrates for human mitochondrial glutathione transferase GSTK1; format: ADME
T8 sequence (Q9Y2Q3 whole entry): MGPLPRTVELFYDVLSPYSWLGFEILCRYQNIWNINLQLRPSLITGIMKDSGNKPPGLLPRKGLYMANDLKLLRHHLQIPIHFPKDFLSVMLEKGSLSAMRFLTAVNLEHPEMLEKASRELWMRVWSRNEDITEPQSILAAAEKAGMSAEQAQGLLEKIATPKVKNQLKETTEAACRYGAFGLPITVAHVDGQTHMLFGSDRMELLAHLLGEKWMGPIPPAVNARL

Sulfotransferase 1A1 = Sulfotransferase 1A1 (Homo sapiens, UniProt P50225); assay: Major substrate of human cytosolic sulfotransferase SULT1A1; format: ADME
Sulfotransferase 1A2 = Sulfotransferase 1A2 (Homo sapiens, UniProt P50226); assay: Major substrate of human cytosolic sulfotransferase SULT1A2; format: ADME
Sulfotransferase 4A1 = molecular target: T9, Sulfotransferase 4A1 (Homo sapiens, UniProt Q9BR01); assay: Major substrate of human cytosolic sulfotransferase SULT4A1_v1; format: ADME
T9 sequence (Q9BR01 whole entry): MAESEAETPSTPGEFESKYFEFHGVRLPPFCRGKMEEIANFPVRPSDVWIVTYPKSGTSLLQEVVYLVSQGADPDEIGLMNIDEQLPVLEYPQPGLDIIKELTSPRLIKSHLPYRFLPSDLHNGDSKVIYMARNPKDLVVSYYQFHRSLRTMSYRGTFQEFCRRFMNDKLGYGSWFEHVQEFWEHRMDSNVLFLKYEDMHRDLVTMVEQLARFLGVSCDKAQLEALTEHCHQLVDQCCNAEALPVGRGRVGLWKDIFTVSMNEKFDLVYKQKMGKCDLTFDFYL

Cytochrome P450 1A2 = molecular target: T10, Cytochrome P450 1A2 (Homo sapiens, UniProt P05177); assay: Clinically relevant inducers of human liver microsomal P450 enzymes, isoform CYP1A2; format: ADME; conditions: microsomes
T10 sequence (P05177 whole entry): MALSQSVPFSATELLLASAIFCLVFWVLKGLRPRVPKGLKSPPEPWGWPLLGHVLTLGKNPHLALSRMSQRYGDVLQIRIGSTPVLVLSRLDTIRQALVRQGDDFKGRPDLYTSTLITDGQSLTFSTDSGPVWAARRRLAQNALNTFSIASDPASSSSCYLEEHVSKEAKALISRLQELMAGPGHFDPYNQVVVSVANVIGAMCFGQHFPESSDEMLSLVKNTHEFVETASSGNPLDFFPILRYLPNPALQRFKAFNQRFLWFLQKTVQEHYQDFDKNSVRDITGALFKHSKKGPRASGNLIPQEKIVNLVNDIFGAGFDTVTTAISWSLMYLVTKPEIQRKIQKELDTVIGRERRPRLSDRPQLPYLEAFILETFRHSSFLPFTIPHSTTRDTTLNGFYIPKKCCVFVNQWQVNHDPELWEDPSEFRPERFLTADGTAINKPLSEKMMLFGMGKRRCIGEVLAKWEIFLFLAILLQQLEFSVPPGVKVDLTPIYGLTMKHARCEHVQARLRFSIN

[12] = molecular target: T3, Aryl hydrocarbon receptor; assay: Aryl hydrocarbon receptor agonist (species not specified)
[13] = molecular target: T11, Glutathione S-transferase theta-1 (Homo sapiens, UniProt P30711); assay: Substrates for human cytosolic glutathione transferase GSTT1; format: ADME
T11 sequence (P30711 whole entry): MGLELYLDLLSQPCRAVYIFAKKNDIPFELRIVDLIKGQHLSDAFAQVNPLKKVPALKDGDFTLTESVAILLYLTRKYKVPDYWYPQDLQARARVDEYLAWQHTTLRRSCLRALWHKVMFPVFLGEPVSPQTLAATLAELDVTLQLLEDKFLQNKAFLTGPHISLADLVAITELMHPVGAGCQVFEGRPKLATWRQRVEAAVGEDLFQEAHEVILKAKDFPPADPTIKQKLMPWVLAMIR

[14] = molecular target: Glutathione S-transferase Mu 3 (Homo sapiens, UniProt P21266); assay: Substrates for human cytosolic glutathione transferase GSTM3; format: ADME
Cytochrome P450 2C19 = Cytochrome P450 2C19 (Homo sapiens, UniProt P33261); assay: Clinically relevant substrates of human liver microsomal P450 enzymes, isoform CYP2C19; format: ADME; conditions: microsomes
Cytochrome P450 2C19, sequence (P33261 whole entry, canonical isoform): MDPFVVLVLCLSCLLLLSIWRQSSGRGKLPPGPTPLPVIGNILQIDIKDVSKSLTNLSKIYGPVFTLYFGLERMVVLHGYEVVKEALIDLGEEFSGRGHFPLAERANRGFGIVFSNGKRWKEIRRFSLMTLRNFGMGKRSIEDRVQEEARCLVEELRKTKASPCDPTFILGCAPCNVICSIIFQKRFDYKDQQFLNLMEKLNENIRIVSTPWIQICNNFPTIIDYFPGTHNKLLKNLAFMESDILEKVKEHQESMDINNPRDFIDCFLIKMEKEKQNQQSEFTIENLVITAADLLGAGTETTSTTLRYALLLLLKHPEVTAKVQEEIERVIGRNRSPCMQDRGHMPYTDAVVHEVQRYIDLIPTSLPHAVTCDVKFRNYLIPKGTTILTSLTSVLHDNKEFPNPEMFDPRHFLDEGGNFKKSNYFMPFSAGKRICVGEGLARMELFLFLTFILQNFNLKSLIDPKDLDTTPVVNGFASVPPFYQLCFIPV

Glutathione S-transferase theta-2, sequence (P0CG29 whole entry): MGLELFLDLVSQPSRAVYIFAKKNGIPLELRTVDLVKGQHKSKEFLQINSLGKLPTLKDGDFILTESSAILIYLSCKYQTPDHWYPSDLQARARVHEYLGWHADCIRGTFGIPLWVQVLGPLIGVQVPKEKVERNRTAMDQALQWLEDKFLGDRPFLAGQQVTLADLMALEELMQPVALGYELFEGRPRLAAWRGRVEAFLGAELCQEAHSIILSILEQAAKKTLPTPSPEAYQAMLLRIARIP
Glutathione S-transferase A3, sequence (Q16772 whole entry): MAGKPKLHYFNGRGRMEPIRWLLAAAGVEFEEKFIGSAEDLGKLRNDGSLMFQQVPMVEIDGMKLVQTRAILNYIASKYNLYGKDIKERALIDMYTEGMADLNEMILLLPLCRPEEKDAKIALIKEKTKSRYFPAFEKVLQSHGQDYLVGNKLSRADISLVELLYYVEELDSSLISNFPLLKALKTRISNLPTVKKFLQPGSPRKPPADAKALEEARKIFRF
Sulfotransferase 1A2, sequence (P50226 whole entry): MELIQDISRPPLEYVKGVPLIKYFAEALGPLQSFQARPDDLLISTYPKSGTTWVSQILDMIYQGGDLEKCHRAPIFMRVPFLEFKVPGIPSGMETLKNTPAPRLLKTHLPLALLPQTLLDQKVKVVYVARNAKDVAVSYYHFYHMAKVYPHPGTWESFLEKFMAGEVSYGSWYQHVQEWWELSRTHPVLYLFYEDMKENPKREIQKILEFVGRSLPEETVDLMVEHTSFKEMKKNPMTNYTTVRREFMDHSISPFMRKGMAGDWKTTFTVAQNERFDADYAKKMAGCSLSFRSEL
Sulfotransferase 1A1, sequence (P50225 whole entry): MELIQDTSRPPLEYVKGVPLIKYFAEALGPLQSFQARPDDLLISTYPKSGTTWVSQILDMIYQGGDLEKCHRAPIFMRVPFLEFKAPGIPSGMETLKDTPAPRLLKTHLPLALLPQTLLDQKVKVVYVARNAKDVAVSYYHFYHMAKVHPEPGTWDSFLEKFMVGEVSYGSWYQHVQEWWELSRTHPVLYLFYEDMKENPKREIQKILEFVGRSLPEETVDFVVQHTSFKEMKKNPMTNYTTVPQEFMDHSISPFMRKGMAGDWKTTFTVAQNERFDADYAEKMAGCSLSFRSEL
Glutathione S-transferase Mu 3, sequence (P21266 whole entry, canonical isoform): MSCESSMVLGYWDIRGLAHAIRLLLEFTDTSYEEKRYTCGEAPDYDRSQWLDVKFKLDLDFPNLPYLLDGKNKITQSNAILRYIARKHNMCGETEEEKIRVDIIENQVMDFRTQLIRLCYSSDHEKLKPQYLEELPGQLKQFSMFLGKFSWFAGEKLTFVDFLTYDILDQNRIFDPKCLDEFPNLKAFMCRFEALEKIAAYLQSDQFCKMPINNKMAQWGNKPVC
Cytochrome P450 2C9, sequence (P11712 whole entry, canonical isoform): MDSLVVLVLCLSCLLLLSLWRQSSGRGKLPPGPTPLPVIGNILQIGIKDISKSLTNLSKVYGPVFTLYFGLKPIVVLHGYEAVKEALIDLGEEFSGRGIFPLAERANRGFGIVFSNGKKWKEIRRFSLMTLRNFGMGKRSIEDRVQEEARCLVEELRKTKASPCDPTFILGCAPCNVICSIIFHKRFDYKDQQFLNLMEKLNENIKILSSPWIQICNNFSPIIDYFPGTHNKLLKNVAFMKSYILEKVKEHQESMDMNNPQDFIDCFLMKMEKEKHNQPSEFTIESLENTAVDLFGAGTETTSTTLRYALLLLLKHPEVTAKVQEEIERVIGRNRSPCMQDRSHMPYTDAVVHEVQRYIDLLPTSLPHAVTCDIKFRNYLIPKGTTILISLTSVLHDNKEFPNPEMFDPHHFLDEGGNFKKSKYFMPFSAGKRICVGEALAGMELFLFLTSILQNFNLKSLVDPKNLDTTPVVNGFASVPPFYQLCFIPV

## OC1c2c(cc3ccc4cccc5c6ccccc6c2c3c45)C2OC2C1O (stereo not given) [DIBENZO[A,L]PYRENE DIOL EPOXIDE]
[1]
  Activity: Substrate
[2]
  Activity: Substrate
[3]
  Activity: Substrate

## COc1ccc2[nH]c(SCc3ncc(C)c(OC)c3C)nc2c1 [UFIPRAZOLE]
[4]
  Activity: antagonist

## Cc1ccccc1/N=N/c1ccc(NC(=O)c2ccnn2C)c(C)c1
[4]
  Activity: antagonist

## O=C1NC(=O)C(c2ccccc2)(c2ccccc2)N1 [PHENYTOIN]
[5]
  Activity: indirect activator
[6]
  Activity: indirect activator
Cytochrome P450 2B6
  Activity: Inducer
Cytochrome P450 2C9
  Activity: Substrate

## CN(C)CCCN1c2ccccc2Sc2ccc(Cl)cc21 [CHLORPROMAZINE]
[7]
  Activity: agonist
[8]
  Activity: inverse agonist

## CC(C)(OO)c1ccccc1 [CUMENE HYDROPEROXIDE]
[1]
  Activity: Substrate
[9]
  Activity: Substrate
[10]
  Activity: Substrate
[11]
  Activity: Substrate

## Oc1ccc2ccccc2c1 [BETANAPHTHOL]
Sulfotransferase 1A1
  Activity: Substrate
Sulfotransferase 1A2
  Activity: Substrate
Sulfotransferase 4A1
  Activity: Substrate

## C[C@]12CCC(=O)CC1=CC[C@@H]1[C@@H]2CC[C@]2(C)C(=O)CC[C@@H]12
[2]
  Activity: Substrate
[3]
  Activity: Substrate

## Cc1cccc(CN2CCN(C(c3ccccc3)c3ccc(Cl)cc3)CC2)c1 (stereo not given) [MECLIZINE]
[7]
  Activity: agonist
[8]
  Activity: inverse agonist

## Clc1cc2c(cc1Cl)Oc1cc(Cl)c(Cl)cc1O2 [2,3,7,8-TETRACHLORODIBENZO-P-DIOXIN]
Cytochrome P450 1A2
  Activity: Inducer
[12]
  Activity: agonist

## O=S(=O)(O)Cc1ccc2ccccc2c1 [MENAPHTHYL SULFONATE]
[9]
  Activity: Substrate

## O=NN(CCCl)C(=O)NCCCl [CARMUSTINE]
[13]
  Activity: Substrate
[14]
  Activity: Substrate

## COc1ccc2[nH]c([S+]([O-])Cc3ncc(C)c(OC)c3C)nc2c1 (stereo not given) [OMEPRAZOLE]
Cytochrome P450 1A2
  Activity: Inducer
[12]
  Activity: agonist
Cytochrome P450 2C19
  Activity: Substrate
